Values of other authors as cited in US20250073197A1, “THE ANTI-INFLAMMATORY ROLE OF CANNABIDIOL, RETINYL PALMITATE, BETA-CARYOPHYLLENE AND TRIBUTYRIN WHEN ADMINISTERED IN CONJUNCTION” (FLG Sciences, LLC, priority 2023, published 2025).

Legend:
[1] = use in the disease named in Table 1 (Diabetes or Dyslipidemia)
[2] = system: 24,000 gene probes

Row | Compound | Side effect [1] | further results
1 | CCc1ccc(CCOc2ccc(CC3SC(=O)NC3=O)cc2)nc1 (stereo not shown) [Pioglitazone] | Edema | 
2 | cannabidiol [CBD] |  | gene transcripts down-regulated ([2]; Illumina gene array): 524; gene transcripts up-regulated ([2]; Illumina gene array): 680; genes downregulated 2-fold or more ([2]; Illumina gene array): 38; transcripts upregulated 2-fold or more ([2]; Illumina gene array): 123; gene transcripts significantly regulated ([2]; Illumina gene array, 24,000 gene probes): 1204
3 | Cn1c(COc2ccc(CC3SC(=O)NC3=O)cc2)nc2ccccc2c1=O (stereo not shown) [Balaglitazone] | Edema | 
4 | CN(CCOc1ccc(CC2SC(=O)NC2=O)cc1)c1ccccn1 (stereo not shown) [Rosiglitazone] | Edema | 
5 | CC(C)(Oc1ccc(CCNC(=O)c2ccc(Cl)cc2)cc1)C(=O)O [Bezafibrate] | Hepatotoxicity | 
6 | CC(C)OC(=O)C(C)(C)Oc1ccc(C(=O)c2ccc(Cl)cc2)cc1 [Fenofibrates] | Pancreatitis | 
